The test system of series [1] is Melan-a cells, that is, mouse melanocytes. Nature of the series: Melanin production inhibition by biarylamide derivatives in melan-a cells (Example 2-2). It counts as cell-based. The settings on record: 30 mM derivative, 10 μl per day for 3 days, final concentration 300 μM, absorbance 400 nm. The protocol:
Melan-a cells, that is, mouse melanocytes, were inoculated onto a 24-well culture plate (10^5 cells), and cultured in RPMI1640 medium including fetal bovine serum (FBS) 10% and 200 nM of phorbol 12-myristate 13-acetate (TPA) for 24 hours. Then, in each well, 990 μl of RPMI1640 medium including FBS 10% and 200 nM TPA was treated with 30 mM of the inventive biarylamide derivative (10 μl per day for 3 days) (final concentration 300). The last day of treatment, the cells were washed with Phosphate buffered saline (PBS) three times, lysed with 1 ml of 1M sodium hydroxide (NaOH) solution, and measured using ELISA Leader at absorbance of 400 nm.

Series [2] relates to B16F10 mouse melanoma cell. Nature of the series: B16F10 melanoma cell proliferation in hairless mouse model (Example 6). The series is classed as in vivo. The conditions noted are these: hairless mice; 100 μl of 1 mM A3/B5 injected into the cell region for 5 days; sectioned on 6th day; FIG. 4. The protocol:
In order to examine the effect of A3/B5 on the inhibition of melanoma cell proliferation, into the back of 5 hairless mice, at both sides of subcutaneous tissues, 5×10^5 B16F10 cells (B16F10 mouse melanoma cell) were injected. Then, 48 hours later, into the region injected with the cells, 100 μl of A3/B5 diluted with phosphate buffer solution to a concentration of 1 mM, and 100 μl of phosphate buffer solution as a control, were injected for 5 days, respectively. On the 6th day, the injected cell region was sectioned and its size and weight were analyzed.

Series [3] concerns A375 human melanoma cell lines. Nature of the series: A375 melanoma cell growth inhibition, BrdU cell proliferation assay (Example 5). It counts as cell-based. The settings on record: respective concentrations, 48 hours, absorbance 450 nm, FIG. 3. As for the experimental part:
A375 cells were inoculated onto a 96 well plate (3×10^3 cells), and cultured in DMEM containing fetal bovine serum (FBS) 10% for 16 hours, and then treated with A3/B5 at respective concentrations, and cultured for 48 hours. Then, by using BrdU cell proliferation assay kit (Roche, Germany), the degree of cell growth inhibition by A3/B5 was examined.

The test system of series [4] is TRP-2 (Tyrosinase related protein-2, Dopachrom tautomerase). Put plainly: TRP-2 expression in melan-a cells by western blotting (Example 4). The series is classed as cell-based, mouse. The conditions noted are these: 50 uM. As for the experimental part:
In order to examine the effects of A3/B5 on TRP-2 expression, mouse melanocytes (melan-a) were cultured in RPMI1640 medium including fetal bovine serum (FBS) 10% and 200 nM of phorbol 12-myristate 13-acetate (TPA) for 24 hours, and treated with A3/B5 at a concentration of 50 uM (per day for 3 days). In order to determine the expression level of TRP-2 over 3 days, each test group was lysed in RIPA buffer solution containing 2 mM EDTA, 137 mM NaCl, 20 mM Tris-HCl (pH 8.0), 1 mM sodium vanadate, 10 mM NaF, 1 mM PMSF (phenylmethanesulfonyl fluoride), 1% NP-40, 10% glycerol and a protease inhibitor cocktail, and protein was separated by SDS-PAGE electrophoresis using 10% acrylamide gel. This was transferred to a nylon membrane, and TRP-2 protein was analyzed by anti TRP-2 antibody (santacuz, US) and anti-Rabbit IgG horse Radish Peroxidase (HRP) conjugation antibody (1;10000, zymed) as a secondary antibody. This was detected by Chemiluminescence reagent kit (ECL, Amersham, US) and then imaged using RAS 3000 Imaging system (FUJI film, Japan) as an image analyzer. Further, in a case where the cells were treated with A3B5 once on the first day of 3 consecutive days, the expression level of TRP-2 over 3 days was also analyzed in the same manner as described above.
A general note: In western blotting, separated proteins are transferred to a membrane and probed.

Series [5] relates to Melan-a cells, that is, mouse melanocytes. Put plainly: Melanin production inhibition by A3/B5 in melan-a cells, with cell viability (Example 3). It counts as cell-based. The settings on record: A3/B5 treatment per day for 3 days, final concentration 1, 10, and 25 (unit not given), FIG. 1A. The protocol: (§1) In order to examine the effect of A3/B5 on melanin inhibition, the degree of melanin production was analyzed using melan-a cells, that is, mouse melanocytes and human normal melanocytes. Melanocytes were inoculated onto a 24-well culture plate (10^5 cells) and cultured in RPMI1640 medium including fetal bovine serum (FBS) 10% and 200 nM of phorbol 12-myristate 13-acetate (TPA) for 24 hours. Then, in each well, 990 μl of RPMI1640 medium including FBS 10% and 200 nM TPA was treated with
(§2) 100, 1000, and 2500 of A3/B5 (10 μl per day for 3 days) (final concentration 1, 10, and 25). The last day of treatment, the cells were washed with Phosphate buffered saline (PBS) three times, lysed with 1 ml of 1M sodium hydroxide (NaOH) solution, and measured using ELISA Leader at absorbance of 400 nm. Additionally, in order to determine if the inhibition of melanin production is caused by apoptosis, cell viability was examined under the same condition as described above. For this, The last day of treatment, the cells were washed with phosphate buffered saline (PBS) three times, and the cells in each well were stained with 200 μl of Crystal Violet (0.1%, EtOH 10%, PBS 89.9%) for 5 minutes, washed with phosphate buffer, lysed in 1 ml of ethanol solution, and measured at absorbance of 590 nm. Further, this experiment was performed for human normal melanocytes in the same manner.

A further series deals with human normal melanocytes. Nature of the series: Melanin production inhibition by A3/B5 in human normal melanocytes (Example 3). It counts as cell-based. The settings on record: A3/B5 treatment per day for 3 days, final concentration 1, 10, and 25 (unit not given), FIG. 1B. As for the experimental part:
as §1, §2

Each structure is given as a SMILES string.

With `Cc1ccc(NC(=O)c2ccc(C)cc2)cc1` [A2/B3, 4-methyl-N-p-tolylbenzamide], in series [1], the “Reduction rate of melanin(%)” value is recorded as 8.6%.

On to `COc1ccccc1NC(=O)c1ccccc1C` [A4/B1, N-(2-Methoxyphenyl)-2-methylbenzamide], for which, in series [1], the “Reduction rate of melanin(%)” value is reported as 17.7%.

Take `CCc1ccc(C(=O)Nc2ccccc2C(=O)OC)cc1` [A12/B4, methyl 2-(4-ethylbenzamido)benzoate]: in series [1], the “Reduction rate of melanin(%)” value is 9.4%.

As to `COc1ccc(C(=O)Nc2cccc(C)c2)cc1` [A1/B6, 4-methoxy-N-m-tolylbenzamide], in series [1], the “Reduction rate of melanin(%)” value amounted to 24.3%.

For `Cc1cccc(NC(=O)c2ccc(C#N)cc2)c1` [A1/B7, 4-cyano-N-m-tolylbenzamide], in series [1], the “Reduction rate of melanin(%)” value is listed as 34.2%.

Regarding `Cc1cc(C)cc(NC(=O)c2ccc(C#N)cc2)c1` [A3/B7, 4-cyano-N-(3,5-dimethylphenyl)benzamide], the “Reduction rate of melanin(%)” value in series [1] came out at 50.6%.

In the case of `CC(=O)c1ccc(NC(=O)c2ccc(C)cc2)cc1` [A10/B3, N-(4-acetylphenyl)-4-methylbenzamide], the “Reduction rate of melanin(%)” value in series [1] is given as 10.4%.

For the molecule `COC(=O)c1ccc(NC(=O)c2cccc(C)c2)cc1` [A14/B2, Methyl 4-(3-methylbenzamido)benzoate], in series [1], the “Reduction rate of melanin(%)” value came out at 30.6%.

Turning to `COc1cccc(C(=O)Nc2cc(C)cc(C)c2)c1` [A3/B5, N-(3,5-dimethylphenyl)-3-methoxybenzamide], in series [2], the “size of injected B16F10 cell region versus phosphate buffer control” value is “smaller”. Besides, in series [2], the “weight of injected B16F10 cell region versus phosphate buffer control” value is recorded as “smaller”. In series [1], the “Reduction rate of melanin(%)” value came out at 48.7%. Moreover, in series [3], the “inhibition on growth of A375 melanoma cells” value was “inhibition on growth of A375 melanoma cells was increased”. The “expression level of TRP-2 protein as compared to non-treated group” value is on record as “significant reduction” in series [4] (treated daily for 3 days, FIG. 2A) and “significant reduction” in series [4] (treated only once on the first day of 3 consecutive days, FIG. 2B). Further, the “reduction in melanin production content of melanocytes with respect to cell viability, as compared to a non-treated group” value in series [5] is given as “about 40%”; with human normal melanocytes it was “about 20%”.

On to `Cc1ccc(C(=O)Nc2cccc(C)c2)cc1` [A1/B3, 4-methyl-N-m-tolylbenzamide], for which the “Reduction rate of melanin(%)” value in series [1] is 32.6%.

Take `CCCCOc1ccc(NC(=O)c2ccccc2C)cc1` [A11/B1, N-(4-Butoxyphenyl)-2-methylbenzamide]: in series [1], the “Reduction rate of melanin(%)” value was determined as 8.9%.

In the case of `COC(=O)c1ccccc1NC(=O)c1ccc(C)cc1` [A12/B3, methyl 2-(4-methylbenzamido)benzoate], in series [1], the “Reduction rate of melanin(%)” value is 9.4%.

Turning to `CCc1ccc(C(=O)Nc2cccc(C)c2)cc1` [A1/B4, 4-ethyl-N-m-tolylbenzamide], the “Reduction rate of melanin(%)” value in series [1] is listed as 23.3%.

Regarding `CCc1ccc(C(=O)Nc2cc(C)cc(C)c2)cc1` [A3/B4, N-(3,5-dimethylphenyl)-4-ethylbenzamide], the “Reduction rate of melanin(%)” value in series [1] turned out to be 36.5%.

As for `COc1ccc(OC)c(NC(=O)c2ccccc2C)c1` [A8/B1, N-(2,5-Dimethoxyphenyl)-2-methylbenzamide], the “Reduction rate of melanin(%)” value in series [1] was found to be 45.5%.

Consider `COC(=O)c1ccccc1NC(=O)c1ccc(OC)cc1` [A12/B6, methyl 2-(4-methoxybenzamido)benzoate], for which the “Reduction rate of melanin(%)” value in series [1] is 39.0%.

For the molecule `Cc1ccc(C(=O)Nc2cc(C)cc(C)c2)cc1` [A3/B3, N-(3,5-dimethylphenyl)-4-methylbenzamide], in series [1], the “Reduction rate of melanin(%)” value worked out at 35.8%.
